{"source": "patent US20090298752A1", "about": "“APLIDINE TREATMENT OF CANCERS” (PHARMA MAR, S.A., priority 1999, published 2009)", "key": {"[1]": {"assay": "Phase I, 24 h infusion every 2 weeks: toxicity and pharmacokinetics", "format": "in vivo, human", "experimental": "Aplidine is given as a 24 hour infusion every 2 weeks. The starting dose was 200 μg/m^2/d and dose escalation proceed including so far 400, 800, 1600, and 3200 μg/m^2/d. A total of 18 patients (M/F: 7/11, median age 52, OMS 0/1:10/8) have been entered. […] Among evaluable patients, toxicity consisted of mild grade I-II nausea/vomiting, grade I-II asthenia, and cramping occurring during or immediately after the infusion. No neuromuscular toxicity were reported at the evaluated doses. One patient with an advanced lung cancer and documented tumour progression at the dose of 1600 μg/m^2 developed a haemolytic anaemia and thrombocytopenia that was considered unlikely related to the study drug. […] An open 2-compartment model fits appropriately most plasma concentration profiles. […] The accrual is ongoing to determine the dose limiting toxicity and the dose to be recommended in phase II studies.\nAplidine was given to patients with solid tumour/NHL as a 24 hr infusion/q2w to 35 patients (median: age=51/ECOG=1) with solid tumour (32 pts) or NHL (3 pts). 23/35 patients were previously exposed to ≧3 previous lines of chemotherapy. Nine dose levels (200-7000 μg/m^2/w/q2w) and 65 cycles (120 infusions) were given. […] Toxicity consisted of G2-3 asthenia and emesis in 9-2 patients and 12-1 pts, respectively. G3 nausea/vomiting (≧5000 μg/m^2) was efficiently treated then prevented with 4HT3-regimens. […] At the dose of 5000 μg/m^2/w/q2w, 2 patients experienced transient muscle cramps with reversible G3 CPK-MM elevations. Among 9 patients treated at 6000 μg/m^2/w, 3 patients experienced an increase of CPK-MM and aldolase after the 3rd injection of aplidine. CPK elevations were G1-2 and not symptomatic in 2 patients but a G3 CPK elevation with G3 muscular pain and loss of muscle strength (DLT) was reported in 1 pt. This was reversible with no sequel. […] Ultrastructural electron microscopy indicated no morphological mitochondria alteration but a lost of the thick myosin filaments. At 7000 μg/m^2/q2w, 4 patients have been entered. […] Mechanistic hypothesis and preventive strategies against muscle toxicity are under evaluation."}, "[2]": {"target": "T1, ornithine decarboxylase (Homo sapiens, UniProt P11926)", "T1 construct": "endogenous in cells; host or cells: CT-1, CT-2 and HT-29 colon cell lines", "T1 sequence (P11926 whole entry)": "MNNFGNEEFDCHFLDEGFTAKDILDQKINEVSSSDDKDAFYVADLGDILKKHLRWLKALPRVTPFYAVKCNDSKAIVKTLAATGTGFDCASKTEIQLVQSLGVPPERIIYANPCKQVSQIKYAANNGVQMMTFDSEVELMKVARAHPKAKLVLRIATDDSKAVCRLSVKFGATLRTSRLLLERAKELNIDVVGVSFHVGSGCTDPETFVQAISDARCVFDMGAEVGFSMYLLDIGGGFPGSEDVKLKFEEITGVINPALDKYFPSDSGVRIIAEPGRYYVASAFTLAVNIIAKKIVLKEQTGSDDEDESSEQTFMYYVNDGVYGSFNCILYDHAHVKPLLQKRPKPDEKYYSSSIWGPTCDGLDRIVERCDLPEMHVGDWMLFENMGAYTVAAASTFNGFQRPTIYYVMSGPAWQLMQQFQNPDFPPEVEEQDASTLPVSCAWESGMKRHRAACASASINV", "settings": "all three cell lines; cited from earlier work"}, "[3]": {"settings": "6000 μg/m^2/w, among 9 patients"}, "[4]": {"settings": "6000 mcg/m^2/2 wks, 12 patients"}}, "data": [{"substance": "aplidine", "values": [{"measurement": "transient muscle cramps with reversible G3 CPK-MM elevations", "setting": "[1]; 5000 μg/m^2/w/q2w", "result": 2, "unit": "patients"}, {"measurement": "G3 CPK elevation with G3 muscular pain and loss of muscle strength (DLT)", "setting": "[1]; [3]", "result": 1, "unit": "pt"}, {"measurement": "increase of CPK-MM and aldolase after the 3rd injection", "setting": "[1]; [3]", "result": 3, "unit": "patients"}, {"measurement": "initial phase median half-life", "setting": "[1]; 2-compartment model, preliminary", "result": 0.64, "unit": "h"}, {"measurement": "terminal phase median half-life", "setting": "[1]; 2-compartment model, preliminary, 24 h infusion", "result": 25.8, "unit": "h"}, {"measurement": "Nausea/vomiting G2 (worst toxicity per patient)", "setting": "[1]; 200 mcg/m^2/2 wks, 3 patients", "result": 2}, {"measurement": "Transaminitis G2 (worst toxicity per patient)", "setting": "[1]; 200 mcg/m^2/2 wks, 3 patients", "result": 1}, {"measurement": "Asthenia G2 (worst toxicity per patient)", "setting": "[1]; 400 mcg/m^2/2 wks, 3 patients", "result": 2}, {"measurement": "Hypertension G2 (worst toxicity per patient)", "setting": "[1]; 400 mcg/m^2/2 wks, 3 patients", "result": 1}, {"measurement": "Nausea/vomiting G2 (worst toxicity per patient)", "setting": "[1]; 400 mcg/m^2/2 wks, 3 patients", "result": 1}, {"measurement": "Flushing G1 (worst toxicity per patient)", "setting": "[1]; 800 mcg/m^2/2 wks, 3 patients", "result": 1}, {"measurement": "Muscle cramps G1 + G2 (worst toxicity per patient)", "setting": "[1]; 800 mcg/m^2/2 wks, 3 patients", "result": 2}, {"measurement": "Asthenia G2 (worst toxicity per patient)", "setting": "[1]; 1600 mcg/m^2/2 wks, 6 patients", "result": 2}, {"measurement": "Asthenia G3 (worst toxicity per patient)", "setting": "[1]; 1600 mcg/m^2/2 wks, 6 patients", "result": 1}, {"measurement": "Muscle cramps G1 + G2 (worst toxicity per patient)", "setting": "[1]; 1600 mcg/m^2/2 wks, 6 patients", "result": 1}, {"measurement": "Nausea/vomiting G2 (worst toxicity per patient)", "setting": "[1]; 1600 mcg/m^2/2 wks, 6 patients", "result": 4}, {"measurement": "Transaminitis G3 (worst toxicity per patient)", "setting": "[1]; 1600 mcg/m^2/2 wks, 6 patients", "result": "(1)"}, {"measurement": "Asthenia G2 (worst toxicity per patient)", "setting": "[1]; 3200 mcg/m^2/2 wks, 3 patients", "result": 1}, {"measurement": "Flushing G1 (worst toxicity per patient)", "setting": "[1]; 3200 mcg/m^2/2 wks, 3 patients", "result": 1}, {"measurement": "Muscle cramps G1 + G2 (worst toxicity per patient)", "setting": "[1]; 3200 mcg/m^2/2 wks, 3 patients", "result": 2}, {"measurement": "Muscle pain G2 (worst toxicity per patient)", "setting": "[1]; 3200 mcg/m^2/2 wks, 3 patients", "result": "(1)"}, {"measurement": "Nausea/vomiting G3 (worst toxicity per patient)", "setting": "[1]; 3200 mcg/m^2/2 wks, 3 patients", "result": "(1)"}, {"measurement": "Asthenia G2 (worst toxicity per patient)", "setting": "[1]; 4000 mcg/m^2/2 wks, 3 patients", "result": 1}, {"measurement": "Flushing G1 (worst toxicity per patient)", "setting": "[1]; 4000 mcg/m^2/2 wks, 3 patients", "result": 1}, {"measurement": "Muscle cramps G1 + G2 (worst toxicity per patient)", "setting": "[1]; 4000 mcg/m^2/2 wks, 3 patients", "result": 2}, {"measurement": "Muscle pain G1 (worst toxicity per patient)", "setting": "[1]; 4000 mcg/m^2/2 wks, 3 patients", "result": 2}, {"measurement": "Nausea/vomiting G2 (worst toxicity per patient)", "setting": "[1]; 4000 mcg/m^2/2 wks, 3 patients", "result": 2}, {"measurement": "Pain central catheter G2 (worst toxicity per patient)", "setting": "[1]; 4000 mcg/m^2/2 wks, 3 patients", "result": 2}, {"measurement": "Asthenia G3 (worst toxicity per patient)", "setting": "[1]; 5000 mcg/m^2/2 wks, 3 patients", "result": "(1)"}, {"measurement": "CPK elevation G3 (worst toxicity per patient)", "setting": "[1]; 5000 mcg/m^2/2 wks, 3 patients", "result": "(1)[1]"}, {"measurement": "CPK elevation G4 (worst toxicity per patient)", "setting": "[1]; 5000 mcg/m^2/2 wks, 3 patients", "result": "(1)[1]"}, {"measurement": "Muscle cramps G1 + G2 (worst toxicity per patient)", "setting": "[1]; 5000 mcg/m^2/2 wks, 3 patients", "result": 2}, {"measurement": "Muscle pain G1 (worst toxicity per patient)", "setting": "[1]; 5000 mcg/m^2/2 wks, 3 patients", "result": 1}, {"measurement": "Muscle weakness G1 (worst toxicity per patient)", "setting": "[1]; 5000 mcg/m^2/2 wks, 3 patients", "result": 1}, {"measurement": "Nausea/vomiting G2 (worst toxicity per patient)", "setting": "[1]; 5000 mcg/m^2/2 wks, 3 patients", "result": 1}, {"measurement": "Transaminitis G2 (worst toxicity per patient)", "setting": "[1]; 5000 mcg/m^2/2 wks, 3 patients", "result": 1}, {"measurement": "Asthenia G2 (worst toxicity per patient)", "setting": "[1]; [4]", "result": 6}, {"measurement": "CPK elevation G2 (worst toxicity per patient)", "setting": "[1]; [4]", "result": "1(1)"}, {"measurement": "CPK elevation G3 (worst toxicity per patient)", "setting": "[1]; [4]", "result": "1(1)"}, {"measurement": "Muscle cramps G1 + G2 (worst toxicity per patient)", "setting": "[1]; [4]", "result": 1}, {"measurement": "Muscle pain G1 (worst toxicity per patient)", "setting": "[1]; [4]", "result": 1}, {"measurement": "Muscle pain G2 (worst toxicity per patient)", "setting": "[1]; [4]", "result": 2}, {"measurement": "Muscle weakness G1 (worst toxicity per patient)", "setting": "[1]; [4]", "result": "1(1)"}, {"measurement": "Muscle weakness G2 (worst toxicity per patient)", "setting": "[1]; [4]", "result": "1(1)"}, {"measurement": "Nausea/vomiting G2 (worst toxicity per patient)", "setting": "[1]; [4]", "result": 2}, {"measurement": "Asthenia G2 (worst toxicity per patient)", "setting": "[1]; 7000 mcg/m^2/2 wks, 7 patients", "result": 2}, {"measurement": "CPK elevation G2 (worst toxicity per patient)", "setting": "[1]; 7000 mcg/m^2/2 wks, 7 patients", "result": 1}, {"measurement": "Flushing G1 (worst toxicity per patient)", "setting": "[1]; 7000 mcg/m^2/2 wks, 7 patients", "result": 1}, {"measurement": "Muscle pain G1 (worst toxicity per patient)", "setting": "[1]; 7000 mcg/m^2/2 wks, 7 patients", "result": 1}, {"measurement": "Nausea/vomiting G2 (worst toxicity per patient)", "setting": "[1]; 7000 mcg/m^2/2 wks, 7 patients", "result": 1}, {"measurement": "Neutrophenia G4 (worst toxicity per patient)", "setting": "[1]; 7000 mcg/m^2/2 wks, 7 patients", "result": 1}, {"measurement": "Transaminitis G2 (worst toxicity per patient)", "setting": "[1]; 7000 mcg/m^2/2 wks, 7 patients", "result": 1}, {"measurement": "terminal half-life", "setting": "[1]; Example 6", "result": "10 to 24", "unit": "h"}, {"measurement": "dose limiting toxicity", "setting": "[1]; Example 6: 18 patients, 200-3200 μg/m^2/d", "result": "no dose limiting toxicity"}, {"measurement": "clearance", "setting": "[1]; Example 14", "result": 332, "unit": "ml/mm.m^2"}, {"measurement": "terminal half life", "setting": "[1]; Example 14", "result": "15 to 35", "unit": "h"}, {"measurement": "G2 asthenia, patients", "setting": "[1]; Example 14, 35 patients", "result": 9, "unit": "patients"}, {"measurement": "G2 emesis, patients", "setting": "[1]; Example 14, 35 patients", "result": 12, "unit": "pts"}, {"measurement": "G3 asthenia, patients", "setting": "[1]; Example 14, 35 patients", "result": 2, "unit": "patients"}, {"measurement": "G3 emesis, patients", "setting": "[1]; Example 14, 35 patients", "result": 1, "unit": "pts"}, {"measurement": "cardiac toxicity", "setting": "[1]; Example 14, 35 patients", "result": "No cardiac toxicity"}, {"measurement": "haematologic toxicity", "setting": "[1]; Example 14, 35 patients", "result": "No haematiologic toxicity"}, {"measurement": "coefficient of variation of CL", "setting": "[1]; Example 18, interpatient", "result": 62, "unit": "%"}, {"measurement": "t ½", "setting": "[1]; Example 18, median, quartiles 15.7-35.0", "result": 23.8, "unit": "h"}, {"measurement": "plasma CL", "setting": "[1]; Example 18, median, quartiles 192-415", "result": 252, "unit": "mL/min/m^2"}, {"measurement": "Vss", "setting": "[1]; Example 18, median, quartiles 274-638", "result": 413, "unit": "L/m^2"}, {"measurement": "Plasma concentrations 24 h after the end of infusion, comparable to efficient in vitro concentrations", "setting": "[1]; doses ≧3000 μg/m^2/q2w", "result": "< 1", "unit": "ng/mL"}, {"measurement": "ornithine decarboxylase activity", "setting": "[2]", "result": "decreased ornithine decarboxylase activity"}]}]}
